Assay [1] has as its target T1, BTK (Homo sapiens, UniProt Q06187). Briefly: In vitro BTK inhibition (no preincubation). The format is biochemical. To be noted: Table 17.
The target of assay [2] is T1, BTK. Briefly: BTK irreversible inhibition, enzyme kinetic analysis. The format is biochemical. To be noted: 500 μM ATP. The protocol:
One of ordinary skill in the art will recognize that this is consistent with the irreversible inhibition of BTK by compound I-A1.
One of ordinary skill in the art will recognize that this is consistent with the irreversible inhibition of BTK by compound I-A6.
One of ordinary skill in the art will recognize that this is consistent with the irreversible inhibition of BTK by compound 3A-2.
The shift of IC50 to a lower value after pre-incubation of the enzyme indicates to one of ordinary skill in the art that a significant portion of the enzyme was inhibited irreversibly during the incubation period.

Assay [3] concerns the target T1, BTK. Kind of assay: BTK washout experiment. To be noted: 6-h incubation, 50 nM BTK, 280 nM compound, 400-fold dilution. The format is biochemical. The protocol: After a 3-h incubation of 40 nM BTK in the presence of 296 nM of compound I-A1, a 400-fold dilution was performed to remove excess inhibitor.
After a 6-h incubation of 50 nM BTK in the presence of 280 nM of compound 3A-6, a 400-fold dilution was performed to remove excess inhibitor.
By way of contrast, a “washout” experiment performed with ARQ-531 gives a very different result, because this compound lacks a warhead and is known to inhibit BTK reversibly. After a 6-h incubation of 50 nM BTK in the presence of 177 nM of ARQ-531, a 400-fold dilution was performed to remove excess inhibitor. […] This indicates to one of ordinary skill in the art that the enzyme was not inhibited irreversibly during the incubation with ARQ-531.

Assay [4] addresses T2, NanoLuc-BTK fusion protein (Homo sapiens, UniProt Q06187).
T2 construct: host or cells: HEK 293 cells
Briefly: NanoBRET target engagement assay in HEK 293 cells. Format: cell-based. To be noted: tracer K-5, 2 hours. The source says: Bioluminescence Resonance Energy Transfer (BRET) is used to quantitatively measure the interaction between proteins in live cells. The NanoBRET Target Engagement (TE) Assay ((Promega, Cat #N2500)) measures the apparent binding affinity of test compounds at select kinase proteins by competitive displacement of a fluorescent NanoBRET kinase-ligand tracer (K-5), from a target kinase fused to a NanoLuc luciferase protein within intact cells. To determine whether test compounds can bind BTK, a fixed concentration of NanoBRET tracer is added to cells expressing the NanoLuc-BTK fusion protein, thereby generating a BRET reporter complex. Application of competitive test compounds results in a dose-dependent decrease in NanoBRET™ energy transfer, which allows quantitation of apparent intracellular affinity of the BTK target protein for the test compound.
In order to evaluate the binding between BTK and test compounds, an intracellular drug displacement assay was performed. […] The plates were then analyzed with a Biotek Synergy Neo2 plate reader equipped with NanoBRET 618 filters (donor 450 nm/8 nm BP and acceptor 600 nm LP). […] BRET ratios are expressed as milliBRET units (mBU), where 1 mBU corresponds to the corrected BRET ratio multiplied by 1000.

For assay [5], the target named is T3, His-tagged BTK kinase domain (Homo sapiens, UniProt Q06187).
T3 construct: Intact His-tagged BTK kinase domain (SOURCE)(10 μM) was incubated
Briefly: Mass spectral analysis of tryptic digest of BTK kinase domain. To be noted: 10 μM BTK KD, 10 μM compound, 45 min; tryptic peptide 467-487. Format: binding. The protocol: A protein kinase that is inhibited by compound and/or pharmaceutically acceptable salt of the present disclosure may be subjected to mass spectral analysis to assess the formation of permanent, irreversible covalent adducts. […] Such methods identify permanent, irreversible covalent protein adducts by observing a mass peak that corresponds to the mass of a control sample plus the mass of an irreversible adduct.
After the incubation time, the reactions were quenched by acetone precipitation and the pellet was re-dissolved in 8 M Urea. […] The BTK protein band was then excised and subjected to an in-gel trypsin digest by reducing the protein (5 mM DTT), alkylating the thiols with iodoacetamide (15 mM), and then incubating the protein gel band with trypsin in a 37 C water bath (4 hours). The tryptic digestion was then quenched by the addition of trifluoroacetic acid, and peptides were removed from the gel band by sonicating with increasing amounts of acetonitrile (0%, 30%, & 60%). Peptides were then purified using C18 ziptips, spotted on the MALDI target plate with α-cyano-4-hydroxycinnamic acid as the desorption matrix (10 mg/mL in 0.10% TFA:Acetonitrile 50:50), and analyzed in reflectron mode.

The next assay has as its target T4, BMX (Homo sapiens, UniProt P51813).
T4 sequence (P51813 1-675): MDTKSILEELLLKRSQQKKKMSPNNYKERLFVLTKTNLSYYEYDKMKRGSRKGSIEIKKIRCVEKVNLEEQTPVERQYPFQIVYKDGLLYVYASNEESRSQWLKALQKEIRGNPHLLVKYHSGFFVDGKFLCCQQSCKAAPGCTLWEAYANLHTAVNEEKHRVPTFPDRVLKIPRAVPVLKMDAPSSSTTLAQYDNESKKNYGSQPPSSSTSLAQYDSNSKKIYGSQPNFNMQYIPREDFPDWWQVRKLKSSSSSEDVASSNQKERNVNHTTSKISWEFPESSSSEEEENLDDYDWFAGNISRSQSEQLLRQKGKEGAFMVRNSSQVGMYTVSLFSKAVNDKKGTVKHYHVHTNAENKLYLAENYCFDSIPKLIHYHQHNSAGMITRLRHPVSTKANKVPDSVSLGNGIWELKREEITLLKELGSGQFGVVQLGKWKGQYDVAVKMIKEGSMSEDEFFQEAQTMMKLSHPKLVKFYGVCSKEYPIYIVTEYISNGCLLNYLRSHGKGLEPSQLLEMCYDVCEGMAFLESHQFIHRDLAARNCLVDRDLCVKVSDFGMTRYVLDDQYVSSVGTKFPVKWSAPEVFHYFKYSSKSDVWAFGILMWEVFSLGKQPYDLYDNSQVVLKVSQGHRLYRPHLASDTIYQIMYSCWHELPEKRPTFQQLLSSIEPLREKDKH
Briefly: In vitro kinase inhibition, BMX. Format: biochemical.

T1 sequence (Q06187 whole entry, species assumed): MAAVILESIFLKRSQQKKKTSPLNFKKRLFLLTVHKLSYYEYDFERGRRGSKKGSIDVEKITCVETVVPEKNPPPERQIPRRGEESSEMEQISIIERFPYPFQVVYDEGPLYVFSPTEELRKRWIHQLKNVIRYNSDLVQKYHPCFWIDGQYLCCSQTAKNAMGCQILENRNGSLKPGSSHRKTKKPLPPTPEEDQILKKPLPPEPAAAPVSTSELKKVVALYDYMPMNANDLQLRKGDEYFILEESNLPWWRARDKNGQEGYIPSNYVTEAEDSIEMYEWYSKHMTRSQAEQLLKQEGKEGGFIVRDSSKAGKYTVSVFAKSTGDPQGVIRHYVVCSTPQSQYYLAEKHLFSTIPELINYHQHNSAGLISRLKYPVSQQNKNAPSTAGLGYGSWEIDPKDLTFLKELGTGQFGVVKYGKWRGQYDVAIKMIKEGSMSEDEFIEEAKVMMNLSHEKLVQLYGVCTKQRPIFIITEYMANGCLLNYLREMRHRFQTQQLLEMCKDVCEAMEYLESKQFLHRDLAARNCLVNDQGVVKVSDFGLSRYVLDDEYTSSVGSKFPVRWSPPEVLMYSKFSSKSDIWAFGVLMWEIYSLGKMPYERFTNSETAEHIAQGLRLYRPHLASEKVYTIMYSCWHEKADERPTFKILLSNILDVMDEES
T3 sequence (Q06187 402-655 limits assumed): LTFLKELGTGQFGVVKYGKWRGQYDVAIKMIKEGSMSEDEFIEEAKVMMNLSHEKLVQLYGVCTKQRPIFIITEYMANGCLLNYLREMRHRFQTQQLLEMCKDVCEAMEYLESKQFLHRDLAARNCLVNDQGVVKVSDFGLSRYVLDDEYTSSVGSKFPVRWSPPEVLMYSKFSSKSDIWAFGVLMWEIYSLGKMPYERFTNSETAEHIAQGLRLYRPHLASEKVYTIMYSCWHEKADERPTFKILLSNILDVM
T2 sequence (Q06187 whole entry, the tested form may be a part): as the sequence (Q06187 whole entry, species assumed) above

One may read the IC50 as the concentration needed to halve the response being measured. As to `COc1c(F)c(F)c(F)c(F)c1S(=O)(=O)NCCn1nc(-c2ccc(Oc3ccccc3)cc2)c2c(N)ncnc21` [Compound 3A-6, N-(2-(4-amino-3-(4-phenoxyphenyl)-1H-pyrazolo[3,4-d]pyrimidin-1-yl)ethyl)-2,3,4,5-tetrafluoro-6-methoxybenzenesulfonamide], the IC50 against BTK [1] is 100 to 1000 nM; on BTK [2] (no pre-incubation, read-out: IC50 against BTK not pre-incubated), 109 nM; on BTK [2] (after 3-h incubation of 50 nM BTK with 280 nM compound, read-out: IC50 against pre-incubated BTK) it was 13.9 nM; in assay [4], 94 nM. Further, the inhibition at 0.28 µM on BTK [3] (read-out: enzyme inhibited irreversibly) turned out to be 87%. The remaining activity at 0.28 µM at BTK [3] (relative to DMSO, read-out: residual activity of the enzyme) is 13%. In assay [5], the C481 covalent modification result is “covalent modification and ✓”.

`COc1c(F)c(F)c(F)c(F)c1S(=O)(=O)N1CCC[C@@H](n2nc(-c3ccc(Oc4ccccc4)cc3)c3c(N)ncnc32)C1` [Compound 3A-1, (R)-3-(4-phenoxyphenyl)-1-(1-((2,3,4,5-tetrafluoro-6-methoxyphenyl)sulfonyl)piperidin-3-yl)-1H-pyrazolo[3,4-d]pyrimidin-4-amine]: the results for the IC50 at BTK [1] and on BMX were 100 to 1000 nM and 10 to 100 nM, respectively.
